Key:
[1] = system: GFP; format: cell-based, M. tuberculosis
[2] = system: β-galactosidase; experiment: β-Galactosidase activity assay in M. smegmatis; format: cell-based
[3] = system: M. smegmatis RiboS-katG; experiment: Isoniazid antibiotic resistance assay, RiboS-katG strain
[4] = system: lacZ reporter gene; experiment: β-galactosidase assay in B. subtilis; conditions: switches B and E compared
Experimental: B. subtilis strain JH642 (2) was grown at 37° C. in LB with shaking (250 rpm). […] To assay for β-galactosidase activity, strains harboring the riboswitches were grown overnight in LB media with 20 μg/mL kanamycin. In the morning, cells were diluted 1:100 into fresh selective media containing 1 mM IPTG and either 0 or 2 mM theophylline. β-galactosidase assays were performed by the method of Miller (13) using permeabilization with toluene. […] Error bars are ±SD.

In the case of `Cn1c(=O)c2[nH]cnc2n(C)c1=O` [theophylline], the “theophylline concentration of maximal GFP expression” value [1] is reported as ~2 mM and the “theophylline concentration of maximum β-galactosidase reporter expression” value [2] is reported as ~2 mM.

With `NNC(=O)c1ccncc1` [isoniazid] the “isoniazid EC50 with increasing theophylline concentrations” value ([3]; 0-10 mM theophylline) was “the EC50 decreases” and the “isoniazid phenotype in the absence of theophylline” value ([3]; no theophylline) was “isoniazid resistance phenotype”.

B1: Riboswitch B: synthetic theophylline-responsive riboswitch, mRNA sequence SEQ ID NO: 12 (nucleic acid)
chain: GGUACCGGUGAUACCAGCAUCGUCUUGAUGCCCUUGGCAGCACCCGCUGCGCAGGGGGUAUCAACAAGAUG
modifications: chemistry not fully specified
In the case of B1, the “activation ratios and levels of expression compared” value [4] is reported as “comparable activation ratios, but substantially different levels of expression”.
